{"source": "paper PMC8389614", "about": "“A Comparison of Acute Pharmacological Effects of Methylone and MDMA Administration in Humans and Oral Fluid Concentrations as Biomarkers of Exposure” (Biology, 2021)", "key": {"healthy poly-drug users [1]": {"test_system": "healthy poly-drug users", "test": "Physiological effects (non-invasive SBP, DBP, HR, cutaneous temperature) after oral self-administration", "format": "in vivo, humans", "parameters": "key to HR Dunnet’s Test: “a” (times 0–1 h); “b” (times 0–2 h); “c” (times 0–4 h); not significant (NS)", "description": "(§1) The study was designed as a non-controlled prospective observational study in a naturalistic setting with methylone and MDMA self-administration. The methodology, including procedures and evaluations, coincides with previous observational–naturalistic studies aimed at evaluating the acute effects of other NPS [38, 39, 40]. Six subjects (5 M, 1 F) self-administered MDMA and 8 subjects (5 M, 3 F) self-administered methylone. Each subject participated only in one session. Participants brought their own substance obtained from an unknown source, which was tested by Energy Control, a harm reduction organization that provides a drug checking service to drug users. Pills containing methylone and MDMA were analyzed by gas chromatography associated with mass spectrometry (GC/MS), a technique that traces the presence of the most frequent drugs of abuse, such as MDMA, cocaine, heroin, amphetamine and methamphetamine, LSD, and multiple NPS (methylone, mephedrone, and other synthetic cathinones, synthetic cannabinoids, tryptamines, among others).\n(§2) In both sessions, participants selected the dose of methylone or MDMA according to their previous drug use experience. Doses of methylone could be selected from a range (75–300 mg) that was previously defined according to the consulted literature. The WHO Expert Committee on Drug Dependence (Thirty-Sixth Meeting, Geneva, Switzerland, 16–20 June 2014) established that 60 mg of methylone was the threshold dose and doses over 250 mg were often related to very strong activity. Some users have reported uses of 300 mg of methylone as a common dose [www.erowid.org] (accessed on 15 June 2021). The mean of the selected doses of MDMA was 87.50 mg (3 subjects ingested 75 mg (2 males and 1 female), 3 males 100 mg). In the other study session, methylone doses ranged from 100 to 300 mg, with a mean of 187.50 mg. Based on their dose selection, 1 male ingested 100 mg, 2 subjects 150 mg (1 male and 1 female), 4 subjects 200 mg (2 males and 2 females), and 1 male 300 mg.\n(§3) The sessions were conducted in a naturalistic setting. Participants were allowed to talk, read, listen to music, or play games, except during the evaluation times. However, they were asked to refrain from talking about the effects of the substance. All the subjects were evaluated simultaneously at baseline, 1, 2, and 4 h after administration of methylone or MDMA, which occurred approximately at 16:00 h. At each time point, evaluations were followed in a specific order: physiological effects, oral fluid collection, and subjective effects scales and questionnaires.\nNon-invasive systolic blood pressure (SBP), diastolic blood pressure (DBP), and heart rate (HR) were measured with subjects in the sitting position, using an automatic Omron monitor at baseline, 1, 2, and 4 h (h) after self-administration. Cutaneous temperature was determined at the same time points.\nVital signs (SBP, DBP, and HR) and subjective effects (VAS, ARCI, and VESSPA-SSE) were baseline-adjusted. Maximum effects and the time in which maximum effects appeared were determined, and the area under the curve (AUC0–4h) was calculated with the trapezoidal rule.\nThirdly, to find possible significant changes from baseline, a Dunnett multiple comparison test was conducted to compare each time point with baseline in both drug conditions (0–1 h, 0–2 h, 0–4 h)."}, "healthy poly-drug users [2]": {"test_system": "healthy poly-drug users", "test": "Subjective effects, visual analogue scales (VAS)", "format": "in vivo, humans", "parameters": "key to VAS stimulated Dunnet’s Test / VAS change in lights Dunnet’s Test / VAS different body feeling Dunnet’s Test / VAS different surrounding Dunnet’s Test / VAS dizziness Dunnet’s Test / VAS headache Dunnet’s Test / VAS face flushing Dunnet’s Test: “a” (times 0–1 h); “b” (times 0–2 h); “c” (times 0–4 h); not significant (NS)", "description": "as §1, §2, §3\nSubjective effects were evaluated at baseline, 1, 2, and 4 h after self-administration using visual analogue scales (VAS), the Addiction Research Center Inventory (ARCI), and the Evaluation of Subjective Effects of Substances with Abuse Potential questionnaire (VESSPA-SSE).\nVisual analogue scales (100 mm, from “not at all” to “extremely”) contained 30 items that subjects were asked to rate, such as: intensity, stimulated, high, good effects, liking, happiness, drunkenness, changes in colors, changes in shapes, changes in lights, hallucinations (seeing lights or spots), hallucinations (seeing of animals), changes in hearing, hallucinations (hearing sounds or voices), different or changed body feeling, unreal body feeling, changes in distances, different surroundings, unreal surroundings, confusion, fear, depression or sadness, drowsiness, dizziness, bad effects, headache, sickness, vertigo, shortness of breath, and face flushing.\nVital signs (SBP, DBP, and HR) and subjective effects (VAS, ARCI, and VESSPA-SSE) were baseline-adjusted. Maximum effects and the time in which maximum effects appeared were determined, and the area under the curve (AUC0–4h) was calculated with the trapezoidal rule. […]"}, "[3]": {"conditions": "oral, methylone 100–300 mg n=8, MDMA 75–100 mg n=6, baseline-adjusted, mean ± SD"}, "[4]": {"conditions": "time points significantly different from baseline"}}, "data": [{"compound": "CNC(C)C(=O)c1ccc2c(c1)OCO2", "note": "(stereo not drawn) [Methylone, 3,4-methylenedioxymethcathinone]", "values": [{"measurement": "DBP AUC0–4h", "setting": "healthy poly-drug users [1]; [3]", "result": "55.19 ± 31.02"}, {"measurement": "DBP Emax", "setting": "healthy poly-drug users [1]; [3]", "result": "19.63 ± 13.96", "unit": "mmHg"}, {"measurement": "HR AUC0–4h", "setting": "healthy poly-drug users [1]; [3]", "result": "52.06 ± 39.16"}, {"measurement": "HR Emax", "setting": "healthy poly-drug users [1]; [3]", "result": "20.50 ± 19.78", "unit": "bpm"}, {"measurement": "SBP AUC0–4h", "setting": "healthy poly-drug users [1]; [3]", "result": "80.81 ± 42.89"}, {"measurement": "SBP Emax", "setting": "healthy poly-drug users [1]; [3]", "result": "31.25 ± 14.77", "unit": "mmHg"}, {"measurement": "Variation in cutaneous temperature", "setting": "healthy poly-drug users [1]; oral, methylone 100–300 mg, MDMA 75–100 mg, versus baseline, 0–4 h", "result": "Neither of the substances caused significant variations"}, {"measurement": "DBP Dunnet’s Test", "setting": "healthy poly-drug users [1]; [4]", "result": "a, b, c"}, {"measurement": "HR Dunnet’s Test", "setting": "healthy poly-drug users [1]; [4]", "result": "a"}, {"measurement": "SBP Dunnet’s Test", "setting": "healthy poly-drug users [1]; [4]", "result": "a, b, c"}, {"measurement": "Time at which subjective effects in general reached maximum values", "setting": "healthy poly-drug users [2]; oral, VAS, ARCI, VESSPA-SSE overall", "result": 2, "unit": "h"}, {"measurement": "VAS change in lights AUC0–4h", "setting": "healthy poly-drug users [2]; [3]", "result": "10.88 ± 11.85"}, {"measurement": "VAS change in lights Emax", "setting": "healthy poly-drug users [2]; [3]", "result": "4.88 ± 4.82", "unit": "mm"}, {"measurement": "VAS content AUC0–4h", "setting": "healthy poly-drug users [2]; [3]", "result": "80.06 ± 82.59"}, {"measurement": "VAS content Emax", "setting": "healthy poly-drug users [2]; [3]", "result": "35.25 ± 30.38", "unit": "mm"}, {"measurement": "VAS different body feeling AUC0–4h", "setting": "healthy poly-drug users [2]; [3]", "result": "44.13 ± 43.86"}, {"measurement": "VAS different body feeling Emax", "setting": "healthy poly-drug users [2]; [3]", "result": "22.25 ± 20.60", "unit": "mm"}, {"measurement": "VAS different surrounding AUC0–4h", "setting": "healthy poly-drug users [2]; [3]", "result": "5.69 ± 10.39"}, {"measurement": "VAS different surrounding Emax", "setting": "healthy poly-drug users [2]; [3]", "result": "4.38 ± 7.50", "unit": "mm"}, {"measurement": "VAS dizziness AUC0–4h", "setting": "healthy poly-drug users [2]; [3]", "result": "2.63 ± 3.02"}, {"measurement": "VAS dizziness Emax", "setting": "healthy poly-drug users [2]; [3]", "result": "2.13 ± 2.53", "unit": "mm"}, {"measurement": "VAS face flushing AUC0–4h", "setting": "healthy poly-drug users [2]; [3]", "result": "64.50 ± 56.75"}, {"measurement": "VAS face flushing Emax", "setting": "healthy poly-drug users [2]; [3]", "result": "31.25 ± 21.91", "unit": "mm"}, {"measurement": "VAS good effects AUC0–4h", "setting": "healthy poly-drug users [2]; [3]", "result": "74.06 ± 67.08"}, {"measurement": "VAS good effects Emax", "setting": "healthy poly-drug users [2]; [3]", "result": "35.63 ± 30.63", "unit": "mm"}, {"measurement": "VAS headache AUC0–4h", "setting": "healthy poly-drug users [2]; [3]", "result": "23.63 ± 28.94"}, {"measurement": "VAS headache Emax", "setting": "healthy poly-drug users [2]; [3]", "result": "20.25 ± 28.93", "unit": "mm"}, {"measurement": "VAS high AUC0–4h", "setting": "healthy poly-drug users [2]; [3]", "result": "55.06 ± 53.54"}, {"measurement": "VAS high Emax", "setting": "healthy poly-drug users [2]; [3]", "result": "24.0 ± 21.28", "unit": "mm"}, {"measurement": "VAS intensity AUC0–4h", "setting": "healthy poly-drug users [2]; [3]", "result": "45.88 ± 43.66"}, {"measurement": "VAS intensity Emax", "setting": "healthy poly-drug users [2]; [3]", "result": "20.0 ± 16.48", "unit": "mm"}, {"measurement": "VAS stimulated AUC0–4h", "setting": "healthy poly-drug users [2]; [3]", "result": "50.56 ± 47.38"}, {"measurement": "VAS stimulated Emax", "setting": "healthy poly-drug users [2]; [3]", "result": "22.50 ± 18.81", "unit": "mm"}, {"measurement": "VAS change in lights Tmax", "setting": "healthy poly-drug users [2]; oral, methylone 100–300 mg n=8, MDMA 75–100 mg n=6, median (min–max)", "result": "1.0 (0.0–2.0) h"}, {"measurement": "VAS change in lights Dunnet’s Test", "setting": "healthy poly-drug users [2]; [4]", "result": "a, b"}, {"measurement": "VAS content Dunnet’s Test", "setting": "healthy poly-drug users [2]; [4]", "result": "a, b"}, {"measurement": "VAS different body feeling Dunnet’s Test", "setting": "healthy poly-drug users [2]; [4]", "result": "NS"}, {"measurement": "VAS different surrounding Dunnet’s Test", "setting": "healthy poly-drug users [2]; [4]", "result": "NS"}, {"measurement": "VAS dizziness Dunnet’s Test", "setting": "healthy poly-drug users [2]; [4]", "result": "a"}, {"measurement": "VAS face flushing Dunnet’s Test", "setting": "healthy poly-drug users [2]; [4]", "result": "b"}, {"measurement": "VAS good effects Dunnet’s Test", "setting": "healthy poly-drug users [2]; [4]", "result": "a, b"}, {"measurement": "VAS headache Dunnet’s Test", "setting": "healthy poly-drug users [2]; [4]", "result": "c"}, {"measurement": "VAS high Dunnet’s Test", "setting": "healthy poly-drug users [2]; [4]", "result": "a, b"}, {"measurement": "VAS intensity Dunnet’s Test", "setting": "healthy poly-drug users [2]; [4]", "result": "a, b"}, {"measurement": "VAS stimulated Dunnet’s Test", "setting": "healthy poly-drug users [2]; [4]", "result": "b"}]}]}
